These results are taken from ChEMBL document CHEMBL4665648, “Potent and selective inhibitors of receptor-interacting protein kinase 1 that lack an aromatic back pocket group” (Bioorg Med Chem Lett, 2019).

As a reminder, the inhibition is the relative decrease from the control value, in per cent.

The target in assay [1] is Casein kinase I isoform gamma-1 (Homo sapiens) (UniProt Q9HCP0). Nature of the assay: Inhibition of recombinant human GST-tagged full length CK1gamma1 expressed in baculovirus expression system using Ser/Thr 05 as substrate at 10 uM incubated for 60 mins by Z'-Lyte assay relative to control.
In assay [2] the target is Activin receptor type-2B (Homo sapiens) (UniProt Q13705). The experiment in a line: Inhibition of tracer 178 binding to recombinant human GST-tagged ACVR2B (185 to 488 residues) expressed in baculovirus expression system at 10 uM incubated for 60 mins by Lanthascreen assay relative to control. In general terms: TR-FRET usually uses a lanthanide donor and a delayed reading to cut background.

The target in assay [3] is G protein-coupled receptor kinase 5 (Homo sapiens) (UniProt P34947). The experiment in a line: Inhibition of recombinant human GST-tagged full length GRK5 expressed in baculovirus expression system using Ser/Thr 16 as substrate at 10 uM incubated for 60 mins by Z'-Lyte assay relative to control.
Assay [4] addresses Vascular endothelial growth factor receptor 1 (Homo sapiens) (UniProt P17948). The experiment in a line: Inhibition of recombinant human GST-tagged FLT1 (781 to 1338 residues) expressed in baculovirus expression system using Tyr 04 as substrate at 10 uM incubated for 60 mins by Z'-Lyte assay relative to control.
Assay [5] deals with Serine/threonine-protein kinase PAK 6 (Homo sapiens) (UniProt Q9NQU5). The experiment in a line: Inhibition of recombinant human His-tagged full length PAK6 expressed in baculovirus expression system using Ser/Thr 20 as substrate at 10 uM incubated for 60 mins by Z'-lyte assay relative to control.
The target in assay [6] is Serine/threonine-protein kinase WNK2 (Homo sapiens) (UniProt Q9Y3S1). The experiment in a line: Inhibition of tracer 178 binding to recombinant human GST-tagged WNK2 (166 to 489 residues) expressed in baculovirus expression system at 10 uM incubated for 60 mins by Lanthascreen assay relative to control.
The target of assay [7] is Testis-specific serine/threonine-protein kinase 1 (Homo sapiens) (UniProt Q9BXA7). Nature of the assay: Inhibition of recombinant human His-tagged full length TSSK1 expressed in baculovirus expression system using Ser/Thr 04 as substrate at 10 uM incubated for 60 mins by Z'-Lyte assay relative to control.
The target in assay [8] is Bone morphogenetic protein receptor type-1A (Homo sapiens) (UniProt P36894). Nature of the assay: Inhibition of tracer 178 binding to recombinant human N-terminal GST-tagged full length BMPR1A expressed in insect expression system at 10 uM incubated for 60 mins by Lanthascreen assay relative to control.
Assay [9] concerns the target Serine/threonine-protein kinase 17A (Homo sapiens) (UniProt Q9UEE5). The experiment in a line: Inhibition of tracer 236 binding to recombinant human GST-tagged full length DRAK1 expressed in baculovirus expression system at 10 uM incubated for 60 mins by Lanthascreen assay relative to control.
The target of assay [10] is T1, Receptor-interacting serine/threonine-protein kinase 1 (Homo sapiens, UniProt Q13546).
T1 sequence (Q13546 whole entry): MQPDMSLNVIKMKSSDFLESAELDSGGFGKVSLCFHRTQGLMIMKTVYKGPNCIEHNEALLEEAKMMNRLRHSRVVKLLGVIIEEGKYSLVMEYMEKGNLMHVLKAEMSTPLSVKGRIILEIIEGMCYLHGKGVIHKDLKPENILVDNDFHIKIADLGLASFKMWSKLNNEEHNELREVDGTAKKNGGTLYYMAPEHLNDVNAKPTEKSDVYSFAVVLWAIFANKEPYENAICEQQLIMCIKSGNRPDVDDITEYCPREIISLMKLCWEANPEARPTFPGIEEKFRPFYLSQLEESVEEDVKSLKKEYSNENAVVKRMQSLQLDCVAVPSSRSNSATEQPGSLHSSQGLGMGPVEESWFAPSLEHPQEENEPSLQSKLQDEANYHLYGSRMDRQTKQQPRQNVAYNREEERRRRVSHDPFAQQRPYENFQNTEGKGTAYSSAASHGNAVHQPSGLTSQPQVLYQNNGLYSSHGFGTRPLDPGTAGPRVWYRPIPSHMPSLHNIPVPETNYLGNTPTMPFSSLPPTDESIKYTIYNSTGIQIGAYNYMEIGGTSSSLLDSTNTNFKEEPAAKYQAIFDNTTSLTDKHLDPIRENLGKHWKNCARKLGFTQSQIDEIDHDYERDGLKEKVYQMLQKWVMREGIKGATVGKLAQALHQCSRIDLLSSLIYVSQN
Nature of the assay: Inhibition of recombinant human His/GST-tagged RIPK1 (2 to 257 residues) expressed in insect expression system incubated for 2 hrs by fluorescence polarization assay. The note with it: read-out: Ki(app).

The target in assay [11] is Tyrosine-protein kinase Blk (Homo sapiens) (UniProt P51451). The experiment in a line: Inhibition of recombinant human His-tagged full length BLK expressed in baculovirus expression system using Tyr 01 as substrate at 10 uM incubated for 60 mins by Z'-Lyte assay relative to control.
Sequence of Tyrosine-protein kinase Blk (Homo sapiens) (P51451 2-505 limits assumed): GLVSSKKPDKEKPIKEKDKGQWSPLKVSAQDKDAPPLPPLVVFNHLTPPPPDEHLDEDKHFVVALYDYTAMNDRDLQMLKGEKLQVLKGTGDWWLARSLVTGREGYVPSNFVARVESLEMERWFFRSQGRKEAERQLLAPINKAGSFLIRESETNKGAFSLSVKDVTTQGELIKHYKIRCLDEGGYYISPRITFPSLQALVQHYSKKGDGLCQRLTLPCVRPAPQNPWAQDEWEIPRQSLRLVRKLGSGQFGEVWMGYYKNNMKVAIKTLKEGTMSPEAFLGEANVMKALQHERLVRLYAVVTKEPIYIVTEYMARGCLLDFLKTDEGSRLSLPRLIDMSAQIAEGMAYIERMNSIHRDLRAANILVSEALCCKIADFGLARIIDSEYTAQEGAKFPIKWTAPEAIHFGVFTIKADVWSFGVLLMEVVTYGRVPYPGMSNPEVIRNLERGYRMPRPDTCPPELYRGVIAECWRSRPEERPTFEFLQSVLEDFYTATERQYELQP
In assay [12] the target is Inhibitor of nuclear factor kappa-B kinase subunit epsilon (Homo sapiens) (UniProt Q14164). The experiment in a line: Inhibition of recombinant human GST-tagged full length IKKepsilon expressed in baculovirus expression system using Ser/Thr 11 as substrate at 10 uM incubated for 60 mins by Z'-lyte assay relative to control.
Sequence of Inhibitor of nuclear factor kappa-B kinase subunit epsilon (Homo sapiens) (Q14164 whole entry, the tested form may be a part): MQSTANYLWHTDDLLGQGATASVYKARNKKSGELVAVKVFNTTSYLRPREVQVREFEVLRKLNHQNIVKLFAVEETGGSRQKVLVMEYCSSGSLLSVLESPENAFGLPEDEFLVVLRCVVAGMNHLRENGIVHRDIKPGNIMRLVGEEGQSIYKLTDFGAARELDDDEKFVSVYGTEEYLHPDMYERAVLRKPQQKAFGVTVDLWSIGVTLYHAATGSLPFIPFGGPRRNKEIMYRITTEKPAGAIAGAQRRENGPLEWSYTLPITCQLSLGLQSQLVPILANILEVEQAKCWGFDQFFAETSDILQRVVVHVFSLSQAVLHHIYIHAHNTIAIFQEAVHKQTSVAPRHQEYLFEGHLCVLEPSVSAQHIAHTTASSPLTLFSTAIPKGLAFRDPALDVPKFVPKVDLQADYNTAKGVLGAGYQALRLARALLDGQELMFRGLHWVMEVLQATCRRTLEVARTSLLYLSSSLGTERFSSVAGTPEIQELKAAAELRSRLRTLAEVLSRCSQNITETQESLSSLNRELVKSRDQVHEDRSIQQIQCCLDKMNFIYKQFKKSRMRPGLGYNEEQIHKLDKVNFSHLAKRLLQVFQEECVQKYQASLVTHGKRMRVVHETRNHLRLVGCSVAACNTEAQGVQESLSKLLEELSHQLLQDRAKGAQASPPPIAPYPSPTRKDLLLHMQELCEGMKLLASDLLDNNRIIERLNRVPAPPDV
In assay [13] the target is Ephrin type-B receptor 3 (Homo sapiens) (UniProt P54753). The experiment in a line: Inhibition of recombinant human GST-tagged EPHB3 (623 to 907 residues) expressed in baculovirus expression system using Tyr 02 as substrate at 10 uM incubated for 60 mins by Z'-Lyte assay relative to control.
Assay [14] concerns the target Mitogen-activated protein kinase kinase kinase kinase 5 (Homo sapiens) (UniProt Q9Y4K4). The experiment in a line: Inhibition of recombinant human GST-tagged full length KHS1 expressed in baculovirus expression system using Ser/Thr 07 as substrate at 10 uM incubated for 60 mins by Z'-lyte assay relative to control.
The target of assay [15] is Serine/threonine-protein kinase 33 (Homo sapiens) (UniProt Q9BYT3). Nature of the assay: Inhibition of tracer 236 binding to recombinant human His-tagged full length STK33 expressed in baculovirus expression system at 10 uM incubated for 60 mins by Lanthascreen assay relative to control.
Assay [16] has as its target Phosphorylase b kinase gamma catalytic chain, skeletal muscle/heart isoform (Homo sapiens) (UniProt Q16816). The experiment in a line: Inhibition of recombinant human GST-tagged full length PHKG1 expressed in baculovirus expression system using Ser/Thr 07 as substrate at 10 uM incubated for 60 mins by Z'-lyte assay relative to control.
The target of assay [17] is Inhibitor of nuclear factor kappa-B kinase subunit beta (Homo sapiens) (UniProt O14920). The experiment in a line: Inhibition of recombinant human GST-tagged full length IKKbeta expressed in baculovirus expression system using Ser/Thr 05 as substrate at 10 uM incubated for 60 mins by Z'-Lyte assay relative to control.
Sequence of Inhibitor of nuclear factor kappa-B kinase subunit beta (Homo sapiens) (O14920 whole entry): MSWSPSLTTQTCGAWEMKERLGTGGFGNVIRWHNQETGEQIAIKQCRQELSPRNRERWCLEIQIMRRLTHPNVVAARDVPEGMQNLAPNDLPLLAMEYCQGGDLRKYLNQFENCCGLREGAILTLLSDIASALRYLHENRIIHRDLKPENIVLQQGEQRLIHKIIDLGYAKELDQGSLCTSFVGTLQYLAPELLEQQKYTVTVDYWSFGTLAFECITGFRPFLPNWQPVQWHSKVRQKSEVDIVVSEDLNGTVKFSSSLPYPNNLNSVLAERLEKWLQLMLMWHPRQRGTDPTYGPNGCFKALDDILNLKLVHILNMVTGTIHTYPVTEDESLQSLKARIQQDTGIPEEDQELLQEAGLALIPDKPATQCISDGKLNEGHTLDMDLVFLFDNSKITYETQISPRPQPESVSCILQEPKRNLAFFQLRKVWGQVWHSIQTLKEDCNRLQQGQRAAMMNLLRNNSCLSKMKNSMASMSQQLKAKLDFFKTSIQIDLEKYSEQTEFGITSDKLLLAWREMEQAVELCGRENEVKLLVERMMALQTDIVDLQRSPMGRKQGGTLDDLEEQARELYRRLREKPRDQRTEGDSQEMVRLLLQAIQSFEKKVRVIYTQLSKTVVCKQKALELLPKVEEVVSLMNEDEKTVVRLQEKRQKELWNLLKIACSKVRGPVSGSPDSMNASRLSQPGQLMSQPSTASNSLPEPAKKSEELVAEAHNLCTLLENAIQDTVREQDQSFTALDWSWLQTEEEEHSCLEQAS
Assay [18] concerns the target Homeodomain-interacting protein kinase 4 (Homo sapiens) (UniProt Q8NE63). The experiment in a line: Inhibition of recombinant human N-terminal GST-tagged HIPK4 expressed in baculovirus expression system using Ser/Thr 18 as substrate at 10 uM incubated for 60 mins by Z'-Lyte assay relative to control.
Assay [19] has as its target Activin receptor type-1B (Homo sapiens) (UniProt P36896). Nature of the assay: Inhibition of recombinant human GST-tagged ACVR1B (150 to 505 residues) expressed in baculovirus expression system using Ser/Thr 16 as substrate at 10 uM incubated for 60 mins by Z'-Lyte assay relative to control.

Molecules are shown by their SMILES.

Sequence of Activin receptor type-1B (Homo sapiens) (P36896 whole entry, the tested form may be a part): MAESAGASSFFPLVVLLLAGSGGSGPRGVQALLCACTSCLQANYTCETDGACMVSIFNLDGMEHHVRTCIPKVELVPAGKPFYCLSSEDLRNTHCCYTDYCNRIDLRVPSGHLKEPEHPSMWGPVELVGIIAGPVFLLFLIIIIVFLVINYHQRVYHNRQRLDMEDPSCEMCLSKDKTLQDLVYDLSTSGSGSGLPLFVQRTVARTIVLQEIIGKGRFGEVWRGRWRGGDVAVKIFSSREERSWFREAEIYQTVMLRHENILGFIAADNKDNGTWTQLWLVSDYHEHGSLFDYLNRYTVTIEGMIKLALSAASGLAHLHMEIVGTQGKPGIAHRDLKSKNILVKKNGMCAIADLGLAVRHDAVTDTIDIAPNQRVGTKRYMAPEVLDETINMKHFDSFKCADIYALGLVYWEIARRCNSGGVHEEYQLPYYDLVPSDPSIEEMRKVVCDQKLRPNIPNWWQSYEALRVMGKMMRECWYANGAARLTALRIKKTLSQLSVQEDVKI
Sequence of Vascular endothelial growth factor receptor 1 (Homo sapiens) (P17948 whole entry, the tested form may be a part): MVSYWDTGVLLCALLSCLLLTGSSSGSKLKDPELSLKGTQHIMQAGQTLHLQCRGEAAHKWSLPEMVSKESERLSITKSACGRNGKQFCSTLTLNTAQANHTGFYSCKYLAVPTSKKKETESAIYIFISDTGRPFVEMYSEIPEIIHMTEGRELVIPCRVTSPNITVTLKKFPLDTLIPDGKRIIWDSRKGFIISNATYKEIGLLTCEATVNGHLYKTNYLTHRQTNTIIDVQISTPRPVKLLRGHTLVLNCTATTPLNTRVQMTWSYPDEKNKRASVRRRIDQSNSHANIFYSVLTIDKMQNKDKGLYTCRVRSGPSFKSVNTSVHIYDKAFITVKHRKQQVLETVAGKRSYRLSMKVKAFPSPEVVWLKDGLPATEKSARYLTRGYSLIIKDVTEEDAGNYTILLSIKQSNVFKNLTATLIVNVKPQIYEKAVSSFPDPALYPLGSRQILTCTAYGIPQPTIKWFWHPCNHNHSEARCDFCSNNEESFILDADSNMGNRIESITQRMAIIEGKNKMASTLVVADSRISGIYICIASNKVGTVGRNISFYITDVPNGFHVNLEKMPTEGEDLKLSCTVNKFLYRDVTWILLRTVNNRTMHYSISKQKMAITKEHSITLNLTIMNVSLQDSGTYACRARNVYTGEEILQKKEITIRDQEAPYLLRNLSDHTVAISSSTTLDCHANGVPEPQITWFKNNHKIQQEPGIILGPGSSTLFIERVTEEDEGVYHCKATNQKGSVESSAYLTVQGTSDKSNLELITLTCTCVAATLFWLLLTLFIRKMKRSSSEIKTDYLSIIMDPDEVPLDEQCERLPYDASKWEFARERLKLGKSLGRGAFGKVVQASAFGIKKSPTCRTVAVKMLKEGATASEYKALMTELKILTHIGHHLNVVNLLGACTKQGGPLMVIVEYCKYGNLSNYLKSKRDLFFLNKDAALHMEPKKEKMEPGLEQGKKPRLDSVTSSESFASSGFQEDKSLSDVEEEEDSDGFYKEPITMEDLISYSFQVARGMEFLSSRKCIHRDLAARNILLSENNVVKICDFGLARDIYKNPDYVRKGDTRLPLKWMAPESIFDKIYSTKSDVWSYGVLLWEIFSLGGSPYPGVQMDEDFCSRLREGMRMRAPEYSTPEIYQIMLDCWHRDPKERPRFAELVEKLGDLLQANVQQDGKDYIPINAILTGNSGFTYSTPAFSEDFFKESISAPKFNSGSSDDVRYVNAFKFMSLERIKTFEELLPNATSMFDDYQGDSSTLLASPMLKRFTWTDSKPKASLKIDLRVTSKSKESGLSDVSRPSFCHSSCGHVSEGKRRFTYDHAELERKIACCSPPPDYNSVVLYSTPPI
Sequence of Mitogen-activated protein kinase kinase kinase kinase 5 (Homo sapiens) (Q9Y4K4 whole entry, looked up): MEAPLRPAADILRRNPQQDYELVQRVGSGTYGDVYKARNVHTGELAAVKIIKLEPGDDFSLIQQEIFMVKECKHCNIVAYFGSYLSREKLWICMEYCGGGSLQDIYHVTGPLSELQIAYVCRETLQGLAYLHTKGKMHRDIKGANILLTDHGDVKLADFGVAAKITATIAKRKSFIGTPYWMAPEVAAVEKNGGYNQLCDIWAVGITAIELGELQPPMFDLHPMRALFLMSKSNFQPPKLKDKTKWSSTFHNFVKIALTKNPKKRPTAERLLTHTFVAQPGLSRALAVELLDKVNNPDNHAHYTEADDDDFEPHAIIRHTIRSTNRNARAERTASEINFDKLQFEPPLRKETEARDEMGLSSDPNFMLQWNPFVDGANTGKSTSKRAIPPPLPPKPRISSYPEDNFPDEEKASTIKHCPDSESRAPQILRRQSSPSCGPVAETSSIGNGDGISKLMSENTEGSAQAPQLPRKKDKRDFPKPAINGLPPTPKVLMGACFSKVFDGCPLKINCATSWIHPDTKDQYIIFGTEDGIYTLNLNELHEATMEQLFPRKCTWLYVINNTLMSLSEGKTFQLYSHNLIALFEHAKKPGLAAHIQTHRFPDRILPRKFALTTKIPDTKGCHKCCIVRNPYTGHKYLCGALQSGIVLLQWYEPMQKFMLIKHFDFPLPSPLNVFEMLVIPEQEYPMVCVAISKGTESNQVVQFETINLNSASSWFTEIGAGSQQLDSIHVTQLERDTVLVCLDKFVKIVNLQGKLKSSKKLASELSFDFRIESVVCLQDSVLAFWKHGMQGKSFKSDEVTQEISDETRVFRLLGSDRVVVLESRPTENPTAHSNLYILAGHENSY
Sequence of Phosphorylase b kinase gamma catalytic chain, skeletal muscle/heart isoform (Homo sapiens) (Q16816 whole entry, looked up, canonical isoform): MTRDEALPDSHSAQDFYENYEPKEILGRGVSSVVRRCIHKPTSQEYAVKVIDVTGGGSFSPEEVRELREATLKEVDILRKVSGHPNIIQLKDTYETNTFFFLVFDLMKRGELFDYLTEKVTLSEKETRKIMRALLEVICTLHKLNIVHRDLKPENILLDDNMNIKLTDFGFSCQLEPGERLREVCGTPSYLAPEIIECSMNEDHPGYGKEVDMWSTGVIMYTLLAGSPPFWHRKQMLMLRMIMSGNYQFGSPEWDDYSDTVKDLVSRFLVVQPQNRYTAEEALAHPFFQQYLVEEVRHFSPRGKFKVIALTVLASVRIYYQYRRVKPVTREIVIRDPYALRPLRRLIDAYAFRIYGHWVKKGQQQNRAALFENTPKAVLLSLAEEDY

On to `CN1C(=O)[C@@H](NC(=O)c2n[nH]c3ncc(C(F)(F)C(F)(F)F)cc23)COc2ccccc21`, for which the inhibition is 5% in assay [1]; -0.5% in [2]; 7.5% in assay [3]; 3.5% in assay [4]; 7% in assay [5]; 5% in [6]. The inhibition in assay [7] amounted to 0%; in assay [8], 5%; in [9], 15.5%; in [11] it was 2%; in [12], 1.5%; in assay [13], 1%. The inhibition was -0.5% in assay [14]; 1% in assay [15]; 9% in assay [16]; 0.5% in [17]; 17.5% in [18]; -1.5% in assay [19]. Moreover, the Ki in assay [10] came out at 6 nM.
